Reference: patent US20080038728A1, “Quadruple Transformed Cell Line Useful for the Identification of Transport Inhibitors” (priority 2004, published 2008)
Read-outs that look alike come from different tables or passages of the source.

How the values were obtained:
[1] = test system: OATP1B1, OATP1B3, and OATP2B1; assay: Uptake (intracellular accumulation) kinetics in ABCC2/OATP1B1/1B3/2B1 quadruple-transfected MDCKII cells; assay type: in vitro ADME, human; conditions: for Km: human
Description: (§1) (a) MDCKII cells were grown on ThinCerts (24-mm diameter, pore size 0.4 μm, pore density 1×10^8 per cm^2) and induced with butyrate as mentioned above. The cells were washed in prewarmed (37° C.) transport buffer (142 mM NaCl, 5 mM KCl, 1 mM KH2PO4, 1.2 mM MgSO4, 1.5 mM CaCl2, 5 mM glucose, and 12.5 mM HEPES, pH 7.3). The ^3H-labeled substrate was dissolved in transport buffer and added either to the apical or to the basolateral compartment at the concentration indicated. After incubation at 37° C., the radioactivity in the opposite compartment was measured by sampling aliquots from the apical or basolateral compartment. Cells were washed 2 times with ice-cold transport buffer containing 0.5% bovine serum albumin and 3 times in ice-cold transport buffer. Intracellular accumulation of radioactivity was calculated by lyzing the cells with 0.2% sodium dodecyl sulfate (SDS) and measuring the radioactivity in the lysate.

OATP1B3 [2] = target: T1, OATP1B3 (Homo sapiens, UniProt Q9NPD5); conditions: BSP uptake, background section; cited from earlier work
T1 sequence (Q9NPD5 1-702): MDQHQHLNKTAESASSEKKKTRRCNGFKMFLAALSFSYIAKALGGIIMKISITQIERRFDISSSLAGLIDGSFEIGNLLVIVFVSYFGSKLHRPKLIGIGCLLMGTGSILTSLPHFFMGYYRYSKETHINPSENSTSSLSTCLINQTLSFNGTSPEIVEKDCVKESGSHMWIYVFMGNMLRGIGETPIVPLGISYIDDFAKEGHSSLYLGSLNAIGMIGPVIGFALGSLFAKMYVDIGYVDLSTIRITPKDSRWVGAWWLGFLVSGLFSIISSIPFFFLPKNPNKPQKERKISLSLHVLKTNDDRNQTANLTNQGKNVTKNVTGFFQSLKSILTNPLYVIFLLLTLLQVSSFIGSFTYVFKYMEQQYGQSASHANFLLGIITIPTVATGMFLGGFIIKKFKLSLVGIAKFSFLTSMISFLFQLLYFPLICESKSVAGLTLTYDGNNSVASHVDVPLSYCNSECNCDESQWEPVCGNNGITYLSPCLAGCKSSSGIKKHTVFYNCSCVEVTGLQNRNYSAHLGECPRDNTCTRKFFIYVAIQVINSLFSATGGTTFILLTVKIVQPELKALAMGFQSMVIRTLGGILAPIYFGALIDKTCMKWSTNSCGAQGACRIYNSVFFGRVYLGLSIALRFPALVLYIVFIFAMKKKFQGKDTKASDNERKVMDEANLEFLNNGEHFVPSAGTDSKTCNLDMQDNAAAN

OATP1B3 [3] = target: T1, OATP1B3; assay: Uptake (intracellular accumulation) kinetics in ABCC2/OATP1B3 double-transfected MDCKII cells; assay type: in vitro ADME; design: expressed in transfected cells; host or cells: MDCKII (canine kidney), co-expressing ABCC2
Description: as §1

In the case of `O=C1OC(c2ccc(O)c(S(=O)(=O)O)c2)(c2ccc(O)c(S(=O)(=O)O)c2)c2c(Br)c(Br)c(Br)c(Br)c21` [Bromosulfophthalein], the maximal velocity ([1]; ABCC2/OATP1B1/1B3/2B1 quadruple-transfectants) is reported as 197.8 pmol×mg protein×min^−1, the Vmax ([1]; cell line ABCC2-OATP1B1/1B3/2B1 (quadruple-transfectant), intracellular accumulation of 3H-labeled substrate) is reported as 197.8 ± 3.0 pmol · mg protein^−1 · min^−1 and the Km ([1]; pH 7.3, cell line ABCC2-OATP1B1/1B3/2B1 (quadruple-transfectant), intracellular accumulation of 3H-labeled substrate, read-out: Km) is reported as 4.8 µM. The Km ([1]; pH 7.3, summary bound for the OATPs, referring to Table 1, read-out: Km values for the OATPs) was under 5 µM, the Km (OATP1B3 [2]) was 3.4 µM and the Vmax (OATP1B3 [3]; cell line ABCC2-OATP1B3, intracellular accumulation of 3H-labeled substrate) was 82.7 ± 4.0 pmol · mg protein^−1 · min^−1. For the same molecule, the Km at 5 min (OATP1B3 [3]; human, pH 7.3) was 2.2 µM.
